{"source": "paper PMC7180948", "about": "“New Insights into 4-Anilinoquinazolines as Inhibitors of Cardiac Troponin I–Interacting Kinase (TNNi3K)” (Molecules, 2020)", "experiment_in_all_cases": "biochemical", "design_in_all_cases": "KINOMEscan competition binding panel (Eurofins DiscoverX), single concentration, % inhibition", "settings_in_all_cases": "read-out: 7 at 1 µM % inhibition", "key": {"[1]": {"biological_target": "T1, ABL1(F317L)-nonphosphorylated (Homo sapiens, UniProt P00519, F317L)", "T1 construct": "nonphosphorylated", "summary_of_the_method": "(§1)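 A single 1 µM concentration of each compound is screened across upwards of 400 human kinases using the KINOMEscan format.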"}, "CDK2": {"biological_target": "CDK2 (Homo sapiens, UniProt P24941)", "summary_of_the_method": "as §1"}, "DMPK2": {"biological_target": "T2, DMPK2 (Homo sapiens, UniProt Q6DT37)", "T2 construct": "gene CDC42BPG", "summary_of_the_method": "as §1"}, "DRAK2": {"biological_target": "T3, DRAK2 (Homo sapiens, UniProt O94768)", "T3 construct": "gene STK17B", "summary_of_the_method": "as §1"}, "EPHA5": {"biological_target": "EPHA5 (Homo sapiens, UniProt P54756)", "sequence (P54756 whole entry)": "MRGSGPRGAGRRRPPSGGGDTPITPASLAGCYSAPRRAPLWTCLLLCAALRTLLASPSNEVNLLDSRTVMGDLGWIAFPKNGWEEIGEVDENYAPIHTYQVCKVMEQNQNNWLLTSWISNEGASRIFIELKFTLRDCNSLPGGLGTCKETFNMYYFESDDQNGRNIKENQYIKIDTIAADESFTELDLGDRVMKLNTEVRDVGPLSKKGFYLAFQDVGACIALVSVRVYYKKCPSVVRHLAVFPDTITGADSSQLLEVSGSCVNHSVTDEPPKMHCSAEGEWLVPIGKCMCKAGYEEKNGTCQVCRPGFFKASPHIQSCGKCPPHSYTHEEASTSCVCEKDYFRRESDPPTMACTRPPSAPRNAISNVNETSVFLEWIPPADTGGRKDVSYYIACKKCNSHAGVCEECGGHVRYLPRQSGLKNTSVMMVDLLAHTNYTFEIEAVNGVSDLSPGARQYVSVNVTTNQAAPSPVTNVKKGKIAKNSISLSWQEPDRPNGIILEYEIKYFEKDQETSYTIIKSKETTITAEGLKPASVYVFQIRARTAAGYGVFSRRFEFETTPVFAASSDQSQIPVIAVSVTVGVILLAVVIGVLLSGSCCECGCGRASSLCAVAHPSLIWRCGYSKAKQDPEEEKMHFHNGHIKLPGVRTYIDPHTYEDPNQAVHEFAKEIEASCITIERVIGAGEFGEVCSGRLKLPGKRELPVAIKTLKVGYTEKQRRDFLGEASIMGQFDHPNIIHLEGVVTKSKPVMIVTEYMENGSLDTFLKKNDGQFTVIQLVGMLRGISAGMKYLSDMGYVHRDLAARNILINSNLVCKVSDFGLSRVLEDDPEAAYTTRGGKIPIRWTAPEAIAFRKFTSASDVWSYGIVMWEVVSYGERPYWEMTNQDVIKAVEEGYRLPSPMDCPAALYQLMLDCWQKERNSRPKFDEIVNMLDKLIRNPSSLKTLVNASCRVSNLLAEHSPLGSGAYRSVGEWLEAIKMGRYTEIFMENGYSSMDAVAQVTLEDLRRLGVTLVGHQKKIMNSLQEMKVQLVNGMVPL", "summary_of_the_method": "as §1"}, "EPHB3": {"biological_target": "EPHB3 (Homo sapiens, UniProt P54753)", "summary_of_the_method": "as §1"}, "ERBB3": {"biological_target": "ERBB3 (Homo sapiens, UniProt P21860)", "summary_of_the_method": "as §1"}, "FGFR4": {"biological_target": "FGFR4 (Homo sapiens, UniProt P22455)", "summary_of_the_method": "as §1"}, "FLT3(ITD,D835V)": {"biological_target": "FLT3(ITD,D835V) (Homo sapiens, UniProt P36888, D835V/ITD)", "summary_of_the_method": "as §1"}, "MET": {"biological_target": "MET (Homo sapiens, UniProt P08581)", "sequence (P08581 whole entry)": "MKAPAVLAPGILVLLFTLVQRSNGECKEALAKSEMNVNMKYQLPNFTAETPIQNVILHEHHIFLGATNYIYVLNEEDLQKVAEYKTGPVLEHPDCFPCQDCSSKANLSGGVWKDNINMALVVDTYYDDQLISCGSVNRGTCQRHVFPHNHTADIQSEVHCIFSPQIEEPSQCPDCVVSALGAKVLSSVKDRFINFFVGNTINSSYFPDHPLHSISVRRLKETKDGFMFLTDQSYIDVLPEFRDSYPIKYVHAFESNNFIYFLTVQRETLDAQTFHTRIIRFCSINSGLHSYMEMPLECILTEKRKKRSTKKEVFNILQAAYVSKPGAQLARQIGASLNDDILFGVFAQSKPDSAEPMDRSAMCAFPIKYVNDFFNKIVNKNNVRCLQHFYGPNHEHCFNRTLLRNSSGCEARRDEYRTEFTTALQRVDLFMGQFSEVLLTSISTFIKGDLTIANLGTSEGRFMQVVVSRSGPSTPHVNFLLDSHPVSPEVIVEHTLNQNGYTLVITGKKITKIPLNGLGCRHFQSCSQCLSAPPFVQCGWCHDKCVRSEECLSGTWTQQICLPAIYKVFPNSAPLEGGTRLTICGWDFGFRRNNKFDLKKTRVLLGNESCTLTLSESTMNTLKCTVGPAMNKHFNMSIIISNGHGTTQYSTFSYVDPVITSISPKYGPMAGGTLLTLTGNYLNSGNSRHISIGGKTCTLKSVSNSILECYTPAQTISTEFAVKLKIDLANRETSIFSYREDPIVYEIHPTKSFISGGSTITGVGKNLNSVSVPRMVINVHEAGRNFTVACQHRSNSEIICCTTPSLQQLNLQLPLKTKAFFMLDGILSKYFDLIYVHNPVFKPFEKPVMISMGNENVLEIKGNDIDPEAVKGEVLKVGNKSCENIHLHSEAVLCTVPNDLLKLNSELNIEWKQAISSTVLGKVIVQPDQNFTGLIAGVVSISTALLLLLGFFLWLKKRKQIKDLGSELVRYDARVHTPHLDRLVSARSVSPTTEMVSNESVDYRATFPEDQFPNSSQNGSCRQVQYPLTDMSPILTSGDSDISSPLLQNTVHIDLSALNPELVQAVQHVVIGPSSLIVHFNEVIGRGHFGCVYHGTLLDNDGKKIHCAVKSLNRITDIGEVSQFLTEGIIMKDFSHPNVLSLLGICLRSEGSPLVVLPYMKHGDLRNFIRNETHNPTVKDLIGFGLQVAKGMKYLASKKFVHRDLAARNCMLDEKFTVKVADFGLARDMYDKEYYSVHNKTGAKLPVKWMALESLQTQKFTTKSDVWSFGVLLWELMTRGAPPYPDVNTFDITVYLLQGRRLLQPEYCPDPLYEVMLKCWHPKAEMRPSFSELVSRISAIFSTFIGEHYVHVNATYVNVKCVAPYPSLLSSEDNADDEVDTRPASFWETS", "summary_of_the_method": "as §1"}, "MUSK": {"biological_target": "MUSK (Homo sapiens, UniProt O15146)", "summary_of_the_method": "as §1"}, "NEK4": {"biological_target": "NEK4 (Homo sapiens, UniProt P51957)", "summary_of_the_method": "as §1"}, "OSR1": {"biological_target": "T4, OSR1 (Homo sapiens, UniProt O95747)", "T4 construct": "gene OXSR1", "summary_of_the_method": "as §1"}, "PIP5K2B": {"biological_target": "T5, PIP5K2B (Homo sapiens, UniProt P78356)", "T5 construct": "gene PIP4K2B", "summary_of_the_method": "as §1"}, "PLK4": {"biological_target": "PLK4 (Homo sapiens, UniProt O00444)", "summary_of_the_method": "as §1"}, "PRKG2": {"biological_target": "PRKG2 (Homo sapiens, UniProt Q13237)", "sequence (Q13237 whole entry)": "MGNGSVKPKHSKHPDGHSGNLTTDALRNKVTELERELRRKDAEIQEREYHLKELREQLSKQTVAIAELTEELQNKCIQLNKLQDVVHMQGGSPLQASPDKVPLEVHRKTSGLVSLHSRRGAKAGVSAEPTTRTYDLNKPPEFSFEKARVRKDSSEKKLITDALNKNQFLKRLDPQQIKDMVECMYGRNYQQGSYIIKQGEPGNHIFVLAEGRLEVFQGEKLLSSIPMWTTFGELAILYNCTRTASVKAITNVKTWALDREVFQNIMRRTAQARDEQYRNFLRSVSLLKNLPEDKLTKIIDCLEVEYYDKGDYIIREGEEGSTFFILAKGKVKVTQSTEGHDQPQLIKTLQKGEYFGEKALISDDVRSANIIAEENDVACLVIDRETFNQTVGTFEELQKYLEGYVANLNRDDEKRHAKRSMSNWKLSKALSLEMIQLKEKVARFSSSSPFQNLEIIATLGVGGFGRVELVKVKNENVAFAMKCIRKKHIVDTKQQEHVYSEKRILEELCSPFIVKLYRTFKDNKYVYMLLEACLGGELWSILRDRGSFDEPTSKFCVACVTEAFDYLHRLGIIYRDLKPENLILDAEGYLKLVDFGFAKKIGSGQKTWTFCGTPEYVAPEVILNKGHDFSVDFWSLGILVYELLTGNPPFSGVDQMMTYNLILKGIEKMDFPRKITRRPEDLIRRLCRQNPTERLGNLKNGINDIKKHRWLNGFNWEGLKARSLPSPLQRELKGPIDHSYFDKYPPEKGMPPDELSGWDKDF", "summary_of_the_method": "as §1"}, "PRKX": {"biological_target": "PRKX (Homo sapiens, UniProt P51817)", "sequence (P51817 whole entry)": "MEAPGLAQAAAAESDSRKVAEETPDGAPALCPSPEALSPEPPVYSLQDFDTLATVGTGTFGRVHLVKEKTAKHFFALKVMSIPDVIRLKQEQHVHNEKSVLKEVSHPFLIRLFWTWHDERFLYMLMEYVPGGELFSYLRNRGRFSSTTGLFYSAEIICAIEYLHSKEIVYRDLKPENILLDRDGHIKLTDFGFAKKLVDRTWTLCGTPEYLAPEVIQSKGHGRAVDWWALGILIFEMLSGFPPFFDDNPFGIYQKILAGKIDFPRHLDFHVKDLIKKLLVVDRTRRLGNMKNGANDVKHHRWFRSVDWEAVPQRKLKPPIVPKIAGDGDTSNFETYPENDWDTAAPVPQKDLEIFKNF", "summary_of_the_method": "as §1"}, "[2]": {"biological_target": "T6, RPS6KA5(Kin.Dom.1-N-terminal) (Homo sapiens, UniProt O75582)", "T6 construct": "Kin.Dom.1-N-terminal", "summary_of_the_method": "as §1"}, "TGFBR2": {"biological_target": "TGFBR2 (Homo sapiens, UniProt P37173)", "summary_of_the_method": "as §1"}, "TNK1": {"biological_target": "TNK1 (Homo sapiens, UniProt Q13470)", "summary_of_the_method": "as §1"}, "TNNI3K": {"biological_target": "TNNI3K (Homo sapiens, UniProt Q59H18)", "sequence (Q59H18 whole entry)": "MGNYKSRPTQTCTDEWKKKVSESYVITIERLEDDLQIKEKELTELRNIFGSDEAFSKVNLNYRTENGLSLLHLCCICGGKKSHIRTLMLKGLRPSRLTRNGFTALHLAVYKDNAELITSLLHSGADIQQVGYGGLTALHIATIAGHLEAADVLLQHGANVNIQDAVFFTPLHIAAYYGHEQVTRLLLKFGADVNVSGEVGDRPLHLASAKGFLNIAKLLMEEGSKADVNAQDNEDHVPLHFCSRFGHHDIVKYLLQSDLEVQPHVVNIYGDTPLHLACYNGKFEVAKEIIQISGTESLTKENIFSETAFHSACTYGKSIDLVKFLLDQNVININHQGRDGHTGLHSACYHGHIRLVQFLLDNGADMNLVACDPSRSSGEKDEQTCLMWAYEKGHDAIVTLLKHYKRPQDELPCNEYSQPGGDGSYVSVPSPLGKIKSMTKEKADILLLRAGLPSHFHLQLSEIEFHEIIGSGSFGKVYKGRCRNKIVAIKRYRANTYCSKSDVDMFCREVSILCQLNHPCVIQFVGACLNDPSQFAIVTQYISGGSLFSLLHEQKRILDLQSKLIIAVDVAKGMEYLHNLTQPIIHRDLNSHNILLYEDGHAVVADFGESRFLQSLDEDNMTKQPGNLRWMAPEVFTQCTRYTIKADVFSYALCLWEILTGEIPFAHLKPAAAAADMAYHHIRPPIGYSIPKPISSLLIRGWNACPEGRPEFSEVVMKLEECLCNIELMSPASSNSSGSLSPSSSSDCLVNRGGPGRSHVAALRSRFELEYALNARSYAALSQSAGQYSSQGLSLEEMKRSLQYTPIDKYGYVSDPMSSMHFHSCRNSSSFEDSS", "summary_of_the_method": "as §1"}, "TRPM6": {"biological_target": "TRPM6 (Homo sapiens, UniProt Q9BX84)", "summary_of_the_method": "as §1"}, "WEE2": {"biological_target": "WEE2 (Homo sapiens, UniProt P0C1S8)", "sequence (P0C1S8 whole entry)": "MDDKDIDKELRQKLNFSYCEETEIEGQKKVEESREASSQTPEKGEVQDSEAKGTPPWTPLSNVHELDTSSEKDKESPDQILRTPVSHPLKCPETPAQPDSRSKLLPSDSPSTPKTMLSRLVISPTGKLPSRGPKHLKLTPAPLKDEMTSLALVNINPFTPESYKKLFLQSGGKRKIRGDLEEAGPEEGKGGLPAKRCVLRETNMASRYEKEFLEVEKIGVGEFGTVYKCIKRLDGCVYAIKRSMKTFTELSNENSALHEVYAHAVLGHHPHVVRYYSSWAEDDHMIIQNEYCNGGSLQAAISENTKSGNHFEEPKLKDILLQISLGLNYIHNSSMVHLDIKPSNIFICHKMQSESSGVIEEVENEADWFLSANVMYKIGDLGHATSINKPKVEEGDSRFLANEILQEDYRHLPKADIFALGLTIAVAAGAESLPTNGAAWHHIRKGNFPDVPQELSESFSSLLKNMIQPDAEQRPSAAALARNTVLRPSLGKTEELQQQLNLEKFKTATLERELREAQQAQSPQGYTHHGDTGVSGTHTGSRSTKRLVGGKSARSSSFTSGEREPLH", "summary_of_the_method": "as §1"}, "YES": {"biological_target": "T7, YES (Homo sapiens, UniProt P07947)", "T7 construct": "gene YES1", "summary_of_the_method": "as §1"}}, "data": [{"smiles": "CNS(=O)(=O)c1ccc(N(C)C)c(Nc2ncnc3cc(OC)c(OC)cc23)c1", "note": "[compound 7, 3-((6,7-dimethoxyquinazolin-4-yl)amino)-4-(dimethylamino)-N-methylbenzenesulfonamide]", "values": [{"measurement": "inhibition at 1 µM", "setting": "[1]", "result": 29, "unit": "%"}, {"measurement": "inhibition at 1 µM", "setting": "CDK2", "result": 0, "unit": "%"}, {"measurement": "inhibition at 1 µM", "setting": "DMPK2", "result": 0, "unit": "%"}, {"measurement": "inhibition at 1 µM", "setting": "DRAK2", "result": 0, "unit": "%"}, {"measurement": "inhibition at 1 µM", "setting": "EPHA5", "result": 0, "unit": "%"}, {"measurement": "inhibition at 1 µM", "setting": "EPHB3", "result": 0, "unit": "%"}, {"measurement": "inhibition at 1 µM", "setting": "ERBB3", "result": 31, "unit": "%"}, {"measurement": "inhibition at 1 µM", "setting": "FGFR4", "result": 0, "unit": "%"}, {"measurement": "inhibition at 1 µM", "setting": "FLT3(ITD,D835V)", "result": 34, "unit": "%"}, {"measurement": "inhibition at 1 µM", "setting": "MET", "result": 3, "unit": "%"}, {"measurement": "inhibition at 1 µM", "setting": "MUSK", "result": 0, "unit": "%"}, {"measurement": "inhibition at 1 µM", "setting": "NEK4", "result": 12, "unit": "%"}, {"measurement": "inhibition at 1 µM", "setting": "OSR1", "result": 22, "unit": "%"}, {"measurement": "inhibition at 1 µM", "setting": "PIP5K2B", "result": 0, "unit": "%"}, {"measurement": "inhibition at 1 µM", "setting": "PLK4", "result": 7, "unit": "%"}, {"measurement": "inhibition at 1 µM", "setting": "PRKG2", "result": 14, "unit": "%"}, {"measurement": "inhibition at 1 µM", "setting": "PRKX", "result": 0, "unit": "%"}, {"measurement": "inhibition at 1 µM", "setting": "[2]", "result": 7, "unit": "%"}, {"measurement": "inhibition at 1 µM", "setting": "TGFBR2", "result": 0, "unit": "%"}, {"measurement": "inhibition at 1 µM", "setting": "TNK1", "result": 37, "unit": "%"}, {"measurement": "inhibition at 1 µM", "setting": "TNNI3K", "result": 62, "unit": "%"}, {"measurement": "inhibition at 1 µM", "setting": "TRPM6", "result": 25, "unit": "%"}, {"measurement": "inhibition at 1 µM", "setting": "WEE2", "result": 0, "unit": "%"}, {"measurement": "inhibition at 1 µM", "setting": "YES", "result": 0, "unit": "%"}]}]}
